# Reference: publication PMC5880808, “A lever-like transduction pathway for long-distance chemical- and mechano-gating of the mechanosensitive Piezo1 channel” (Nature Communications, 2018)
# Tests used:
# mPiezo1 [1] = biological target: T1, mPiezo1 (Mus musculus, UniProt E2JF22); experiment: Cell-attached patch with pressure clamp (stretch-activated currents); format: cell-based; conditions: for slope sensitivity (s): DMSO 14.1 ± 0.7; for P50 (the pressure required for half maximal activation): DMSO −27.0 ± 3.4
# T1 construct: The full-length mPiezo1 has 2547 amino acids in each monomer; expressed in transfected cells; host or cells: HEK293T
# T1 sequence (E2JF22 whole entry): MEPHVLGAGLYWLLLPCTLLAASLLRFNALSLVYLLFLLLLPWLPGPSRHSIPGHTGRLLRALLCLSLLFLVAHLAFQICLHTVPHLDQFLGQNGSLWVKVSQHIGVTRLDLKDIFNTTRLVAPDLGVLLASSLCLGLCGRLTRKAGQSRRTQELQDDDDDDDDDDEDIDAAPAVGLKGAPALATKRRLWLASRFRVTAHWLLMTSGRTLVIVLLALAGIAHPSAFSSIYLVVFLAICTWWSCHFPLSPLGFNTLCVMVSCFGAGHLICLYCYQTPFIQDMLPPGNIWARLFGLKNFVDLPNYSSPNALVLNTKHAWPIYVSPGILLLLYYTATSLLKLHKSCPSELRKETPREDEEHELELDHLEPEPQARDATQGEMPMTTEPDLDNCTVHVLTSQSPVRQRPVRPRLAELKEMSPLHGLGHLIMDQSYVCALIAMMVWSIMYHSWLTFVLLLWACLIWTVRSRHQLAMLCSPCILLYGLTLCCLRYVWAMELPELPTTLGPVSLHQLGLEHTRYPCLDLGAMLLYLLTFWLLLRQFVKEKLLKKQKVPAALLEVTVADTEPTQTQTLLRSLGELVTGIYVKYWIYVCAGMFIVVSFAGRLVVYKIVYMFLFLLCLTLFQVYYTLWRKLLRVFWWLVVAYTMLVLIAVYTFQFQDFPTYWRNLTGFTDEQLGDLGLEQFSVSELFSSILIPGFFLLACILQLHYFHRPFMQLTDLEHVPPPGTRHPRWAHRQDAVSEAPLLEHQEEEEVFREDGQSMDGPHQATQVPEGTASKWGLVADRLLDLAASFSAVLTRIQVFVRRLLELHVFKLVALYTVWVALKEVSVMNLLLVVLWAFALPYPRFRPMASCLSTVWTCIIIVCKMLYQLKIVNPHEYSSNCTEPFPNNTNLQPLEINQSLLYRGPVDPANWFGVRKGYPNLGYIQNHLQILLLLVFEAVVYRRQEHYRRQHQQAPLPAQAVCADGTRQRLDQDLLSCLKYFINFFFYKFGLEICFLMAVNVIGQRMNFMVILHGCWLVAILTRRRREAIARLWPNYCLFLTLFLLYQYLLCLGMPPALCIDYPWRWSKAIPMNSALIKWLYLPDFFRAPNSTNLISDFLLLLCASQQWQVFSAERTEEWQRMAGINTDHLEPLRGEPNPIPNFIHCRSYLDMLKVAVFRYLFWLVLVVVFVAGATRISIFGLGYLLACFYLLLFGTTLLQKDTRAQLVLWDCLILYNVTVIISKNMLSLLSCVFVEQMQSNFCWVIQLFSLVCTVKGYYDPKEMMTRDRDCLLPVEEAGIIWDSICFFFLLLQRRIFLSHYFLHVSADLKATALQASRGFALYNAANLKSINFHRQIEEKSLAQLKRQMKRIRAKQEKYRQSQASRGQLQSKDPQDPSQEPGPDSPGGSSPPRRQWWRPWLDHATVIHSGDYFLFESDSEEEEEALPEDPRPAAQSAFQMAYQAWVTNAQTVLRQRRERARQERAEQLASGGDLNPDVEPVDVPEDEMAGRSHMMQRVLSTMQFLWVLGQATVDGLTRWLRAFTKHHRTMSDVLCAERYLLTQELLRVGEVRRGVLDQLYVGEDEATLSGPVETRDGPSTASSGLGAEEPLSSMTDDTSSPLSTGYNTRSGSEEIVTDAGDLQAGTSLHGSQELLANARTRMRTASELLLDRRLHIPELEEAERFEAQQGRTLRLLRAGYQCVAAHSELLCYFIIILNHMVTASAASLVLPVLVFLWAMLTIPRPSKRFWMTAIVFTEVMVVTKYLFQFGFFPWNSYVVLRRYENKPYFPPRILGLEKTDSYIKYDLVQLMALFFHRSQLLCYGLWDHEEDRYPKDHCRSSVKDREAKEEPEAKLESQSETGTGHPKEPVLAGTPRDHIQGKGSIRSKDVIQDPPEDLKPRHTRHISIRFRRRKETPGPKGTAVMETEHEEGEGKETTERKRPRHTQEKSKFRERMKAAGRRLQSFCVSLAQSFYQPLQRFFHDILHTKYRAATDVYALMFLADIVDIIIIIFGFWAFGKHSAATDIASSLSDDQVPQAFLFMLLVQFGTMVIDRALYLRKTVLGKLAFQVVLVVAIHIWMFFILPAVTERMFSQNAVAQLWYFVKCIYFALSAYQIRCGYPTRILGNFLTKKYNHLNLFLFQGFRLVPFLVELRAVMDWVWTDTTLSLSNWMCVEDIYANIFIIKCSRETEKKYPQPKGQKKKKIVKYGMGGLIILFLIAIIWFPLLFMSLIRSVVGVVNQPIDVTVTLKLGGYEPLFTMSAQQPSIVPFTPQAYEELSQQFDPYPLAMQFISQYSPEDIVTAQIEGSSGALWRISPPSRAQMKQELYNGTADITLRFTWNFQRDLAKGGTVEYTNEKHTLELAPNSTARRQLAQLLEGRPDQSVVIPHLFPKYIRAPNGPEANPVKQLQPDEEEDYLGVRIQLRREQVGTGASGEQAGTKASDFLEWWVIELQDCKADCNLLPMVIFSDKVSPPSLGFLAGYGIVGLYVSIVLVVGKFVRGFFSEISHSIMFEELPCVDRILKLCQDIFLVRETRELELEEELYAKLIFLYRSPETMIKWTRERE
# Method: Stretch-activated currents were recorded in the cell-attached patch-clamp configuration as previously described. Currents were sampled at 20 kHz and filtered at 2 kHz. Pipette was filled with a solution consisting of (in mM) 130 NaCl, 5 KCl, 10 HEPES, 1 CaCl2, 1 MgCl2, and 10 TEA-Cl (pH 7.3, balanced with NaOH). The external solution used to zero the membrane potential consisted of (in mM) 140 KCl, 10 HEPES, 1 MgCl2, and 10 glucose (pH 7.3 with KOH). All experiments were done at room temperature. Membrane patches were stimulated with negative pressure pulses for 500 ms through the recording electrode using a Patchmaster-controlled pressure clamp HSPC-1 device (ALA-scientific). Stretch-activated channels were recorded at a holding potential of −80 mV with pressure steps from 0 to −100 mm Hg (−10 mm Hg increments), and 4–11 recording traces were averaged per cell for analysis. Current-pressure relationships were fitted with a Boltzmann equation of the form: I(P) = [1 + exp (−(P – P50)/s)]^−^1, where I is the peak of stretch-activated current at a given pressure, P is the applied patch pressure (in mm Hg), P50 is the pressure value that evoked a current value which is 50% of Imax, and s reflects the current sensitivity to pressure.
# mPiezo1 [2] = biological target: T1, mPiezo1; experiment: SPR binding to immobilized purified protein; conditions: immobilized mPiezo1 in C12E10, 25 °C
# Method: We next employed the surface plasmon resonance (SPR) binding assay to examine whether Jedi1/2 bind directly to purified mPiezo1 proteins solubilized in the C12E10 detergent (Supplementary Fig. 2a, b). Based on an amine-coupling method, Piezo1 proteins (50 μg/ml) were optimally immobilized onto a research-grade CM5 sensor chip by using a buffer containing 10 mM sodium acetate (pH 5.0), 150 mM NaCl, 0.026% C12E10, and 0.05% Surfactant P20. […] Given the hydrophilic nature of Jedi1/2, it is possible that the amine-based attachment of the purified Piezo1 protein to the SPR sensor chip might affect the binding. […] Nevertheless, given their low binding affinity, we could not totally exclude the possibility that Jedi1/2 might indirectly activate Piezo1 in the cell.
# (§1) Real-time binding and analysis by SPR were conducted on BIAcore T200 instrument (GE Healthcare) at 25 °C. Proteins were immobilized on a research-grade CM5 sensor chip by amine-coupling methods. During the pH scouting process, 10 mM sodium acetate at various pH including 4.0, 4.5, 5.0, and 5.5 and protein concentrations varying between 10 and 100 μg/ml were screened before immobilization. Except pH 4.5 for mPiezo1-(1–2190), pH 5.0 was used for all other proteins, including mPiezo1, CED, Δ15-16, and Δ19-20. All proteins were diluted to 50 μg/ml in buffer containing 10 mM sodium acetate at the abovementioned pH, 0.026% C12E10 detergent, and 150 mM NaCl, except that the soluble CED proteins, which were diluted in 150 mM NaCl without detergent. During the immobilization process, the CM5 sensor was activated with NHS first, allowing the amine-containing proteins to be coupled to the sensor through NHS. […]
# (§2) For data collection, compounds at various concentrations were diluted in a running buffer containing 1× PBS, 0.026% detergent C12E10, and 0.05% Surfactant P20 (GE Healthcare Bio-Sciences AB) and injected over the flow cells with at a 30 μl/min flow rate. […] Data were analyzed with the BIAcore T200 evaluation software by fitting to a 1:1 affinity-binding model.
# mPiezo1(1–2190) = biological target: T2, mPiezo1(1–2190) (Mus musculus, UniProt E2JF22); experiment: SPR binding to immobilized purified protein; conditions: FPLC fraction of trimeric proteins
# T2 construct: N-terminal fragment containing residues 1–2190 [mPiezo1(1–2190)]; GST (PreScission site) (cleaved yes); made in house; host or cells: HEK293T
# T2 sequence (E2JF22 1-2190): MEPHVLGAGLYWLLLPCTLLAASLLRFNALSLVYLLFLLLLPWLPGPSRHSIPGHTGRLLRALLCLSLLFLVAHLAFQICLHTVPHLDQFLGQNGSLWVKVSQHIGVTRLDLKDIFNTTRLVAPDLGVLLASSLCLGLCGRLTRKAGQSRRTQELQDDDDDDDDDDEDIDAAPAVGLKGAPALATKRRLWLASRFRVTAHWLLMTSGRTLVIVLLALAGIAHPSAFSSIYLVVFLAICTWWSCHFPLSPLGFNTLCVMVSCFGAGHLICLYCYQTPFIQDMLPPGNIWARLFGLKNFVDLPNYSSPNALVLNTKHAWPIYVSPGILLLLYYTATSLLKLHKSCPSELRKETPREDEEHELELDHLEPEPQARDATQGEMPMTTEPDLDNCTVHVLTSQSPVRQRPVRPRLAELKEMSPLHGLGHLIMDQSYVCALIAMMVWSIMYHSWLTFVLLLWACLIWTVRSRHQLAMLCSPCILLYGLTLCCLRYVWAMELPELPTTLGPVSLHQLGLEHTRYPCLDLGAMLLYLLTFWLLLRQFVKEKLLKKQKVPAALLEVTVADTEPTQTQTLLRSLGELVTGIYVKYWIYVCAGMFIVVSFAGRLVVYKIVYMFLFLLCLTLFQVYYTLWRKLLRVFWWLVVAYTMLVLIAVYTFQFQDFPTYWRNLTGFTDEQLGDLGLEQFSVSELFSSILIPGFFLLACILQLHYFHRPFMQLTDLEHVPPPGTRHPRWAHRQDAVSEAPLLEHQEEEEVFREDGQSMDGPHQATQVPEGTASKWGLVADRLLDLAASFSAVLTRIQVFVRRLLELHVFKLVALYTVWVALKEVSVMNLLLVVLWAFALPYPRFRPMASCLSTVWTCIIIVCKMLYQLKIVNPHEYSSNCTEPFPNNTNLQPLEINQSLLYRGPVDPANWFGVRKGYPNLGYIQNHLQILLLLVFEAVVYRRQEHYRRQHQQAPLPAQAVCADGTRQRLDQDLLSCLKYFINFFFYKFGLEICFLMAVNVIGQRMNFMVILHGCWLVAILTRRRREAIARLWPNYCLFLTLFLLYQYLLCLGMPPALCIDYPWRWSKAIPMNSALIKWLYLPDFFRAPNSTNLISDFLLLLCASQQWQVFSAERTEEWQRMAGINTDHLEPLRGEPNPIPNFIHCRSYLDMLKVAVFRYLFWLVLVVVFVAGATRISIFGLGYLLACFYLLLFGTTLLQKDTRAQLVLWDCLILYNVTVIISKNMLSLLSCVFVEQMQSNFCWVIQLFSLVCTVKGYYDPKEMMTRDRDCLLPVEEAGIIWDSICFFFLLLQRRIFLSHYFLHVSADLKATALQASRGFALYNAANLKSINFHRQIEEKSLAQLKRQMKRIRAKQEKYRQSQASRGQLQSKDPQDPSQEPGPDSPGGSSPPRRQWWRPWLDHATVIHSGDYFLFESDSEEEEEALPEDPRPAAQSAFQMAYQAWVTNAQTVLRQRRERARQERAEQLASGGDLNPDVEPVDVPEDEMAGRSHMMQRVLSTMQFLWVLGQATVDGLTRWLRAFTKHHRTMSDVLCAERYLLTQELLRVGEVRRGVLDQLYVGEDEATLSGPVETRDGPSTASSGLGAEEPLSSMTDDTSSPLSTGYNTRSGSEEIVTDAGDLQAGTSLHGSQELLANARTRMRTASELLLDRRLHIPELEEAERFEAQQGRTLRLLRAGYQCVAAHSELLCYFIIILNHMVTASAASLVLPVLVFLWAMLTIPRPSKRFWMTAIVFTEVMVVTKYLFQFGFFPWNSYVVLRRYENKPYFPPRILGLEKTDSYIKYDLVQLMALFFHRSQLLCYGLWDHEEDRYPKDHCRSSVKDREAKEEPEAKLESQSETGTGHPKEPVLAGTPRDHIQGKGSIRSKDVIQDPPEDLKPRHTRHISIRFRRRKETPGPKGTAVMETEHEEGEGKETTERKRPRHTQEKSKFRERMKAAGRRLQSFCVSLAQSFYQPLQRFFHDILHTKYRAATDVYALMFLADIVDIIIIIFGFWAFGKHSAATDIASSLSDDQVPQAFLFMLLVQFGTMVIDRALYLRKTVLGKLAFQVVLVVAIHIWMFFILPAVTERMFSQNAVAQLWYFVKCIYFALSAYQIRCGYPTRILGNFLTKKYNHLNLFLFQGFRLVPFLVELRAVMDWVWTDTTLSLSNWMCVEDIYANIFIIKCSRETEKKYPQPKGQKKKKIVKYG
# Source text: Since Jedi1/2 act through the extracellular side of Piezo1, we asked if it might bind to the C-terminal extracellular domain (CED; 2214–2457) that trimerizes to form the extracellular Cap-structure of the central ion-conducting pore module (Fig. 1)[8]. However, none of Jedi1/2, Yoda1, and the control compound bound to the purified CED proteins (without the use of the C12E10 detergent since they are soluble proteins; Fig. 4a–h). We next purified the large N-terminal fragment containing residues 1–2190 [mPiezo1(1–2190)] using the same purification procedure for mPiezo1. […] We used the FPLC fraction corresponding to the trimeric proteins (peak 2 of Supplementary Fig. 2d) for SPR binding assay. […] Given that Jedi1/2 function through the extracellular side, we propose that Jedi1/2 bind to the extracellular loop regions of the blade. The distant location of the Jedi action region relative to the pore indicates a distinct long-distance allosteric gating of Piezo1.
# as §1, with “detergent.” for “detergent. During the immobilization process, the CM5 sensor was activated with NHS first, allowing the amine-containing proteins to be coupled to the sensor through NHS.”
# as §2
# mPiezo1 Q1344A = biological target: T3, mPiezo1 Q1344A (Mus musculus, UniProt E2JF22, Q1344A); experiment: Fura-2 single-cell Ca2+ imaging, Q1344A mutant; format: cell-based; conditions: 1 mM Jedi1, 30 µM Yoda1
# T3 construct: The full-length mPiezo1 has 2547 amino acids in each monomer; mCherry; expressed in transfected cells; host or cells: HEK293T
# T3 sequence (E2JF22 whole entry Q1344A): as the sequence (E2JF22 whole entry) above, with Q1344A counted along it
# Method: Fura-2 single-cell Ca^2+ imaging was performed according to the previous protocol. In brief, mCherry-Piezo1 cDNA (1 μg)-transfected HEK293T cells were plated onto 12-mm round glass coverslips, which were coated with poly-D-lysine and placed in 24-well plates, and subject to Fura-2 single-cell Ca^2+ imaging about 36 h post transfection. Cells were washed with buffer containing 1× HBSS (1.3 mM Ca^2+) and 10 mM HEPES (pH 7.2), incubated with 2.5 μM Fura-2 and 0.05% Pluronic F-127 (Life Technologies) for 30 min, then washed again with the previously mentioned buffer. The coverslip was mounted into an inverted Nikon-Tie microscope equipped with a CoolSNAP charge-coupled devise (CCD) camera and Lambda XL light box (Sutter Instrument), and mCherry-positive and -negative cells were selected for measurement of the 340/380 ratio with a ×20 objective (numerical aperture 0.75) using the MetaFluor Fluorescence Ratio Imaging software (Molecular Device).
# [3] = biological target: T4, L1342A/L1345A mutant proteins (Mus musculus, UniProt E2JF22, L1342A/L1345A); experiment: SPR binding to purified L1342A/L1345A mutant protein
# T4 construct: The full-length mPiezo1 has 2547 amino acids in each monomer; GST (PreScission site) (cleaved yes); made in house; host or cells: HEK293T
# T4 sequence (E2JF22 whole entry L1342A/L1345A): as the sequence (E2JF22 whole entry) above, with L1342A, L1345A counted along it
# Method: Real-time binding and analysis by SPR were conducted on BIAcore T200 instrument (GE Healthcare) at 25 °C. Proteins were immobilized on a research-grade CM5 sensor chip by amine-coupling methods. During the pH scouting process, 10 mM sodium acetate at various pH including 4.0, 4.5, 5.0, and 5.5 and protein concentrations varying between 10 and 100 μg/ml were screened before immobilization. Except pH 4.5 for mPiezo1-(1–2190), pH 5.0 was used for all other proteins, including mPiezo1, CED, Δ15-16, and Δ19-20. All proteins were diluted to 50 μg/ml in buffer containing 10 mM sodium acetate at the abovementioned pH, 0.026% C12E10 detergent, and 150 mM NaCl, except that the soluble CED proteins, which were diluted in 150 mM NaCl without detergent. During the immobilization process, the CM5 sensor was activated with NHS first, allowing the amine-containing proteins to be coupled to the sensor through NHS. Each CM5 sensor had 4 flow cells, and the flow cells 1 and 3 were often left blank as a reference. Diluted Piezo1 wild-type or mutant proteins (50 μg/ml) in their respective buffers were immobilized on the flow cell 2 or flow cell 4 to the similar level as indicated by the “response bound” parameter.
# For data collection, compounds at various concentrations were diluted in a running buffer containing 1× PBS, 0.026% detergent C12E10, and 0.05% Surfactant P20 (GE Healthcare Bio-Sciences AB) and injected over the flow cells with at a 30 μl/min flow rate. The proteins and the compounds were allowed to associate for 180 s and then dissociate for 180 s. Data were analyzed with the BIAcore T200 evaluation software by fitting to a 1:1 affinity-binding model.
structure (smiles),measurement,setting,value
Cc1oc(-c2ccccc2)cc1C(=O)O [Jedi1],slope sensitivity (s),mPiezo1 [1],9.8 ± 1.9 mm Hg
same,maximal stretching-induced Piezo1 current,mPiezo1 [1]; −80 mV,Neither Jedi1 nor Yoda1 altered
same,P50 (the pressure required for half maximal activation),mPiezo1 [1]; −80 mV,−16.7 ± 2.2 mm Hg
same,Kd,mPiezo1 [2],2750 ± 425 µM
same,binding to mPiezo1(1–2190) proteins (SPR),mPiezo1(1–2190),virtually identical fashion as to mPiezo1
same,effect of the Q1344A mutation on compound-induced Ca2+ responses,mPiezo1 Q1344A,did not affect
same,binding to purified L1342A/L1345A mutant proteins (SPR),[3],retained the ability to bind
Cc1oc(-c2cccs2)cc1C(=O)O [Jedi2],Kd,mPiezo1 [2],2770 ± 178 µM
same,binding to mPiezo1(1–2190) proteins (SPR),mPiezo1(1–2190),virtually identical fashion as to mPiezo1
same,binding to purified L1342A/L1345A mutant proteins (SPR),[3],retained the ability to bind
"Clc1cccc(Cl)c1CSc1nnc(-c2cnccn2)s1 [Yoda1, reference compound]",slope sensitivity (s),mPiezo1 [1],8.0 ± 2.4 mm Hg
same,maximal stretching-induced Piezo1 current,mPiezo1 [1]; −80 mV,Neither Jedi1 nor Yoda1 altered
same,shift of the pressure-current relationship,mPiezo1 [1]; −80 mV,significant leftward shift
same,P50 (the pressure required for half maximal activation),mPiezo1 [1]; −80 mV,−15.1 ± 0.9 mm Hg
same,Kd,mPiezo1 [2],45.6 ± 14.3 µM
same,binding to mPiezo1(1–2190) proteins (SPR),mPiezo1(1–2190),virtually identical fashion as to mPiezo1
same,effect of the Q1344A mutation on compound-induced Ca2+ responses,mPiezo1 Q1344A,did not affect
same,binding to purified L1342A/L1345A mutant proteins (SPR),[3],retained the ability to bind
